Measurements published in US8523975B2, “Salts of mineral nutrients stabilized with amino acids and/or ammonium salt, products and food supplements that contain them and procedures for obtaining same” (priority 2005, dated 2013).

Legend:
[1] = reference data (Merck Index XII / manufacturer Bartek Inc.); cited from earlier work
[2] = Comparative data of solubility in water; conditions: 25° C., solubility expressed as iron

| Structure (SMILES) | Solubility in water at 25° C. (non-stabilized salt) [1] [grams per liter] | Fe++ (ferrous) allowed per liter of water [2] |
| --- | --- | --- |
| O=C([O-])/C=C/C(=O)[O-].[Fe+2] [Ferrous fumarate] | 1.4 | 0.460 gr Fe++ per liter of water |
| O.O.O.O=C([O-])/C=C/C(=O)[O-].[Ca+2] [Calcium Fumarate 3H2O] | 1.22 | – |
